Data on 74 compounds can be found in PubChem BioAssay AID1259333 (Broad Institute, 2017).

The test system of this experiment is cytotoxicity, CellTiter-Glo ATP luminescence. Briefly: cell cytotoxicity, dose response, cytotoxicity control, CellTiter-Glo (AID 1259333). (In ATP-based viability assays light output follows the ATP content of the culture.)

Each structure is given as a SMILES string. Activity calls are given as the source filed them. How the calls were made is not given here; tested in parental BL2 cells.

As usually defined, the AC50 is the concentration giving half of the maximal activity seen. On to `C[C@H]1CN([C@@H](C)CO)C(=O)c2c(c3ccccc3n2C)-c2ccccc2CO[C@@H]1CN(C)C(=O)Nc1ccccc1C(F)(F)F`, for which the AC50 is > 20 µM (inactive). On to `CC1OC(OC2CC(O)C3(CO)C4C(O)CC5(C)C(C6=CC(=O)OC6)CCC5(O)C4CCC3(O)C2)C(O)C(O)C1O` (centres undefined), for which the concentration at half-maximal activity (AC50) was 0.236 µM. In the case of `CCCNC(=O)N1[C@@H](C#N)[C@H](c2ccc(-c3cccc(OC)c3)cc2)[C@@H]1CO` it was > 20 µM (inactive); in that of `CC(=O)OC1C(=O)OCC23CCC4(C)OC4C2OC2CC(OC(=O)C=CC=CC(=O)OCCC1C)C3(C)C21CO1` (centres undefined), > 7 µM (inactive). Regarding `CC(C)(C)OC(=O)CC(S(=O)(=O)c1ccccc1)S(=O)(=O)c1ccccc1`, the AC50 was 6.37 µM.

As to `C[C@H](CO)N1C[C@H](C)[C@@H](CN(C)Cc2ccc(Oc3ccccc3)cc2)Oc2c(NC(=O)CCC(F)(F)F)cccc2C1=O`, the concentration at half-maximal activity (AC50) is 6.84 µM. In the case of `C[C@@H]1CN([C@H](C)CO)C(=O)c2c(c3ccccc3n2C)-c2ccccc2CO[C@@H]1CN(C)C(=O)c1cc(Cl)cc(Cl)c1` it was 9.93 µM. In the case of `C[n+]1c2n(c3ccccc31)N=C(c1ccc(-c3ccccc3)cc1)CS2` it was 6.3 µM; in that of `Cc1ccc(CN2CC(C(=O)Nc3ncc(C)s3)CC2=O)cc1` (centres undefined), > 20 µM (inactive); in that of `C[C@@H]1CN([C@@H](C)CO)C(=O)c2c(c3ccccc3n2C)-c2ccccc2CO[C@H]1CN(C)Cc1ccccc1`, 9.77 µM. To `O=C(Nc1ccccc1)N1CC(=O)N2[C@H](CO)[C@@H](c3ccc(C#CC4CCCCC4)cc3)[C@H]2C1` belongs > 20 µM (inactive). Turning to `OCC1OC(n2cnc3cc(Cl)c(Cl)cc32)C(O)C1O` (centres undefined), the AC50 is > 20 µM (inactive).

`Cc1noc(C)c1S(=O)(=O)Nc1ccc2c(c1)C(=O)N([C@H](C)CO)C[C@H](C)[C@@H](CN(C)C(=O)Nc1cccc3ccccc13)OCCCC[C@H](C)O2`: the AC50 is > 20 µM (inactive). In the case of `COc1cccc(-c2cc(=O)c3cc(OC)ccc3o2)c1` it was 10.3 µM; in that of `C1CCC(C(CC2CCCCN2)C2CCCCC2)CC1` (centres undefined), 2.37 µM; in that of `COC(=O)C1=C(C)NC(C)=C(C(=O)OCCCN2CCC(c3ccccc3)(c3ccccc3)CC2)[C@H]1c1cccc([N+](=O)[O-])c1`, > 20 µM (inactive).

For `O=[N+]([O-])c1ccc(N2CCOCC2)c2c1no[n+]2[O-]`, the half-maximal activity concentration (AC50) was 2.85 µM.

In the case of `Clc1ccc(COC(Cn2ccnc2)c2ccc(Cl)cc2Cl)c(Cl)c1` (centres undefined), the concentration at half-maximal activity (AC50) was 8.13 µM. Turning to `NCCOc1ccc(C23CC4CC(CC(C4)C2)C3)cc1`, the half-maximal activity concentration (AC50) was 4.9 µM. Turning to `COc1cccc2c1C(=O)c1c(O)c3c(c(O)c1C2=O)C[C@@](O)(C(C)=O)C[C@@H]3OC1CC(N)C(O)C(C)O1` (some centres undefined), the half-maximal activity concentration (AC50) is 2.72 µM. In the case of `O=C(Cn1ncc(Cl)c(Cl)c1=O)NC1CCCCC1` it was 9.64 µM; in that of `CCN1/C(=C/c2sc(-c3ccccc3C)c[n+]2C)Sc2ccccc21`, 9.06 µM.

With `Cc1ccc(S(=O)(=O)N2CCCC2CNC(=O)c2ccc3c(c2)OCO3)cc1` (centres undefined), the AC50 was 4.95 µM. With `COc1ccc(S(=O)(=O)Nc2ccc3c(c2)C(=O)N([C@@H](C)CO)C[C@@H](C)[C@@H](CN(C)Cc2ccc(C(F)(F)F)cc2)OCCCC[C@H](C)O3)cc1`, the AC50 is > 20 µM (inactive). To `O=C(C1CCC1)N1CCc2cc(S(=O)(=O)N3CCCCC3)ccc21` belongs 2.65 µM; to `COc1ccc(C[C@H]2NC[C@H](O)[C@H]2OC(C)=O)cc1`, 2.75 µM.

Regarding `CC(NCC(O)COCCC12CC3CC(CC(C3)C1)C2)c1ccccc1` (centres undefined), the AC50 is 6.49 µM. Consider `C[C@@H]1CN([C@H](C)CO)C(=O)c2c(c3ccccc3n2C)-c2ccccc2CO[C@H]1CN(C)C(=O)c1cc(Cl)cc(Cl)c1`, for which the AC50 was > 20 µM (inactive). In the case of `CC(C)Cc1ccc(C(C)CC2=CCC(CN(C)C)C2=O)cc1` (centres undefined) it was 3.42 µM. To `CCSc1ccc(-c2cc(NC=O)c3ncc(-c4cccc(C(=O)N(C)C)c4)n3c2)cc1` belongs > 20 µM (inactive). To `CCS(=O)(=O)N1[C@H](CO)[C@@H](c2ccc(C#Cc3ccccc3F)cc2)[C@@H]1C#N` belongs > 20 µM (inactive); to `C[C@H](CO)N1C[C@H](C)[C@H](CN(C)C(=O)Nc2cccc(Cl)c2Cl)OCc2ccccc2-c2c(n(C)c3ccccc23)C1=O`, 2.51 µM.

For the compound `CC(C)NC(=O)N1CC(=O)N2[C@H](CO)[C@@H](c3ccc(/C=C/c4ccccc4)cc3)[C@H]2C1`, the AC50 is > 20 µM (inactive). Take `N#Cc1c(Br)n(C2OC(CO)C(O)C2O)c2ncnc(N)c12` (centres undefined): the AC50 was 4.91 µM. In the case of `O=S(=O)(c1cccc2cnccc12)N1CCNCC1` it was 7.09 µM; in that of `COC(=O)c1ccccc1-c1c2ccc(=N)cc-2oc2cc(N)ccc12`, > 20 µM (inactive). With `COC(=O)c1ccc2nc(NC(=O)C(C)(C)C)sc2c1`, the half-maximal activity concentration (AC50) was 7.83 µM. For `CCC(C)[C@H]1O[C@]2(CC[C@@H]1C)C[C@@H]1C[C@@H](C/C=C(\C)[C@@H](OC3C[C@H](OC)C(O[C@H]4C[C@H](OC)[C@@H](O)[C@H](C)O4)[C@H](C)O3)[C@@H](C)/C=C/C=C3\CO[C@@H]4[C@H](O)C(C)=C[C@@H](C(=O)O1)[C@]34O)O2` (some centres undefined), the AC50 was > 20 µM (inactive). In the case of `C[C@H](CO)N1C[C@H](C)[C@@H](CN(C)Cc2cccc(C(F)(F)F)c2)OCc2ccccc2-c2c(n(C)c3ccccc23)C1=O` it was 6.4 µM.

For the compound `Clc1ccc(CSC(Cn2ccnc2)c2ccc(Cl)cc2Cl)cc1` (centres undefined), the AC50 is > 20 µM (inactive).

As for `O=C(Nc1cccc(N2C(=O)C=CC2=O)c1)c1cccs1`, the concentration at half-maximal activity (AC50) was 2.26 µM. For `CO[C@H]1CC(O[C@@H]2/C(C)=C/C[C@@H]3C[C@@H](C[C@]4(CC[C@H](C)[C@@H](C5CCCCC5)O4)O3)OC(=O)[C@@H]3C=C(C)/C(=N/O)[C@H]4OC/C(=C\C=C\[C@@H]2C)[C@]43O)O[C@@H](C)C1O` (some centres undefined), the half-maximal activity concentration (AC50) is 9.15 µM. To `CC(C)[C@H](CO)Nc1nc(Nc2cccc(Cl)c2)c2ncn(C(C)C)c2n1` belongs 2.86 µM; to `C[C@@H]1CN([C@H](C)CO)C(=O)c2ccccc2-c2ccccc2CO[C@@H]1CN(C)C(=O)c1cc(Cl)cc(Cl)c1`, 8.71 µM. In the case of `Cn1cnc(CCNC(=O)C[C@@H]2CC[C@@H]3[C@H](COC[C@@H](O)CN3C(=O)Nc3ccc(C(F)(F)F)cc3)O2)c1` it was > 20 µM (inactive). With `C[C@H]1CN([C@@H](C)CO)C(=O)c2c(c3ccccc3n2C)-c2ccccc2CO[C@@H]1CN(C)Cc1cccc(C(F)(F)F)c1`, the AC50 is 4.21 µM. To `CC1=C(C#N)c2nc(N)c(C#N)c(C)c2/C1=C\c1ccccc1` belongs 8.93 µM; to `C[C@@H]1CN([C@H](C)CO)C(=O)c2ccccc2-c2ccccc2CO[C@@H]1CN(C)Cc1ccccc1C(F)(F)F`, 6.93 µM; to `Cc1noc(C)c1S(=O)(=O)Nc1ccc2c(c1)C(=O)N([C@@H](C)CO)C[C@H](C)[C@@H](CN(C)C(=O)Nc1cccc3ccccc13)OCCCC[C@H](C)O2`, > 20 µM (inactive).

`N#C[C@H]1[C@@H](c2ccc(C#CC3CCCCC3)cc2)[C@@H](CO)N1C(=O)Nc1ccc(F)cc1`: the AC50 is > 20 µM (inactive).

Turning to `CC(=O)OCC12CC(OC(=O)CC(C)C)C(C)=CC1OC1C(O)C(OC(C)=O)C2(C)C12CO2` (centres undefined), the concentration at half-maximal activity (AC50) is 3.67 µM.

With `N#C[C@H]1[C@H](c2ccc(C#Cc3ccccc3F)cc2)[C@@H](CO)N1C(=O)c1cccnc1`, the AC50 is 11.2 µM. In the case of `O=C(c1ccc(-c2ccc([N+](=O)[O-])cc2)o1)N1CCCC(C(F)(F)F)C1` (centres undefined) it was > 20 µM (inactive). Turning to `COc1cc(/C=N/n2cnnc2)ccc1OC(=O)c1ccncc1`, the half-maximal activity concentration (AC50) is 8.07 µM. Turning to `CC(C)OC(=O)c1cn(Cc2c(F)cccc2F)c2sc(-c3ccc(NC(=O)C(C)C)cc3)c(CN(C)Cc3ccccc3)c2c1=O`, the AC50 was > 20 µM (inactive). With `C[C@@H]1C[C@@H]([C@H](O)CC2CC(=O)NC(=O)C2)C(=O)[C@@H](C)C1`, the AC50 is > 20 µM (inactive). To `CC(C)c1ccc(NC(=O)Nc2nc(C(N)COCc3ccccc3)cs2)cc1` (centres undefined) belongs 4.21 µM; to `NS(=O)(=O)c1cc2c(cc1C(F)(F)F)NC(Cc1ccccc1)NS2(=O)=O` (centres undefined), > 20 µM (inactive). Consider `COc1ccc(S(=O)(=O)Nc2ccc3c(c2)C(=O)N([C@H](C)CO)C[C@H](C)[C@@H](CN(C)Cc2ccc(C(F)(F)F)cc2)OCCCC[C@@H](C)O3)cc1`, for which the half-maximal activity concentration (AC50) was 10.5 µM.

On to `c1cc(-c2cnn3cc(-c4ccc(OCCN5CCCCC5)cc4)cnc23)ccn1`, for which the half-maximal activity concentration (AC50) was 1.44 µM. In the case of `Cc1cc(C(=O)COC(=O)c2ccco2)c(C)n1Cc1ccco1`, the AC50 is > 20 µM (inactive). Regarding `COc1ccc2c(c1)c1ncn(Cc3ccccn3)c(=O)c1n2C`, the AC50 was > 20 µM (inactive). In the case of `O=C(Nc1ccccn1)c1ccc(-c2ccccc2)cc1` it was > 20 µM (inactive); in that of `CC(=O)NCCCC(=O)NC(CCC(=O)OCc1ccccc1)C(=O)OCc1ccccc1` (centres undefined), 9.31 µM. In the case of `O=C1/C(=C/c2ccccc2)C[C@@]2(O)C3Cc4ccc(O)c5c4[C@@]2(CCN3CC2CC2)[C@H]1O5` it was 2.6 µM.

As to `CC12CCC3C(CCC4(O)CC(O)CCC34C=NO)C1(O)CCC2C1=COC(=O)C1` (centres undefined), the AC50 was 0.322 µM. To `CC(C)c1c(O)ccc2c1CCC1C(C)(C)CCC[C@]21C` (some centres undefined) belongs 6.74 µM; to `O=C1c2c(O)ccc(O)c2C(=O)c2c(NCCNCCO)ccc(NCCNCCO)c21`, 5.78 µM. To `CC1=CC(C)(C)N=C(Nc2nc(C)c3cc(C)cc(C)c3n2)N1` belongs 1.46 µM; to `C[C@@H]1CN([C@@H](C)CO)C(=O)Cc2cc(NC(=O)Cc3cn(C)c4ccccc34)ccc2O[C@H]1CN(C)Cc1ccc(C(F)(F)F)cc1`, > 20 µM (inactive); to `C[C@@H]1CC=CC[C@H](c2ccc(F)cc2)NC(=O)[C@@H](Cc2ccccc2)N(C)C(=O)c2ccccc2O1` (mixture of isomers), > 20 µM (inactive). In the case of `O=C(C1CC1)N1C[C@@H]2N[C@H](C1)[C@@H]2c1ccc(-c2ccncc2)cc1` it was > 20 µM (inactive). With `COC(=O)C1=C(C(=O)OC)C2OC1c1cc3ccccc3cc12`, the half-maximal activity concentration (AC50) was 2.65 µM.

For the compound `O=C1NC2c3c(Cl)sc(Cl)c3C(=O)C2O1` (centres undefined), the concentration at half-maximal activity (AC50) was 3.72 µM.
